System: Escherichia coli ATCC strain number 8739
Test: Enteral antimicrobial laboratory evaluation: inoculated tryptic soy agar plates sprayed with test mixture, enumerated after three days
Type: cell-based
Settings: TSA plates sprayed, phosphoric acid added to pH approximately 3.2 simulating mammalian stomach
Protocol: In particular, testing was conducted as follows:
Six (6) identical conventional tryptic soy agar (“TSA”) plates were inoculated with Escherichia coli of the ATCC strain number 8739, which, as previously discussed, is a feces derived strain typical of that expected in the applications of the present invention.
The inoculated plates were then separated into three (3) groups of two (2) plates each, which groups were treated as follows: • a. […] Group III was sprayed with purified water only (in order to establish a negative control for the evaluation).

SMILES: O=P(O)(O)O [phosphoric acid solution, phosphoric acid]
- growth of Escherichia coli: only a minor reduction in the growth

From patent publication US20140154337A1, “ANTIMICROBIAL AGENTS AND METHODS FOR USE THEREOF IN THE ABATEMENT OF FOOD BORNE PATHOGENIC ORGANISMS” (priority 2011, published 2014)
